Assay results taken from patent publication US11129820B2, “Ferroportin-inhibitor salts” (Vifor (International) AG, priority 2017, dated 2021).
Marks after values point to notes of the source that are not given here.

Columns and labels:
[1] = system: beta2-microglobulin deficient (b2m−/−) mice; experiment: Prevention of iron overload in beta2-microglobulin deficient mice; assay type: in vivo, mouse; settings: 20 mg/kg p.o. b.i.d., 14 days
Experimental: In addition, feeding 3 week old b2m−/− mice a diet with low iron content (LID) immediately after weaning prevents liver iron loading by age of 6-7 weeks. The efficacy of the Fpn inhibitors to prevent liver iron accumulation in b2m−/− mice is investigated. Three weeks old b2−/− mice fed LID are dosed with either Fpn inhibitor or vehicle (methylcellulose; 10 ml/kg). Mice have access to drinking water supplemented with 1 mM ^58Fe(II)-sulfate and 10 mM ascorbic acid. Dosing of Fpn inhibitor or vehicle followed by exposure to iron-containing water is repeated for 14 days. Mice are euthanized and the liver and spleen iron contents are analyzed by ICP-OES (all iron isotopes) and liver tissue is also analyzed for ^58Fe concentration (ICP-MS).
Livers and spleens are collected after 14 day treatment (p.o.; b.i.d) of beta2-microglobulin deficient mice with the indicated doses of Fpn inhibitors. Total liver and spleen tissue iron concentrations are measured using ICP-OES and ^58Fe liver concentrations are determined with ICP-MS. Relative changes (%) of tissue iron levels are calculated by normalizing the difference between the averages of tissue iron values of animals dosed with the Fpn inhibitors and those of vehicle-treated animals with the average of vehicle controls.

anemic Wistar rats = experiment: Prevention of iron absorption in anemic rats; assay type: in vivo, rat; settings: n=5
Experimental: To assess the in vivo efficacy of ferroportin (Fpn) inhibitors to block iron absorption, a series of Fpn inhibitors is tested in an anemic rat model for iron absorption. Wistar rats (3-4 weeks old, n=5, Janvier Labs) are fed a low iron diet (Provimi-Kliba, Cat. 2039) until their hemoglobin (Hb) values reach 7-8 g/dl one day before dosing of the Fpn inhibitor compounds. One hour before oral application of 0.5 mg/kg of ferrous sulfate, test compounds formulated in methyl cellulose or Cremophor are dosed orally. Blood samples are taken by tail vein puncture one hour before administration of iron (−1 h), immediately after dosing of the Fpn inhibitors (0 h) and one hour (1 h), three hours (3 h) and occasionally up to 6 hours (6 h) after dosing of the test compounds. Serum iron levels are measured (Abbott Diagnostics, Cat. 6K95) and inhibition of the rise of serum iron three hours after dosing of the test compound is calculated as a measure for efficacy of the Fpn inhibitors in blocking iron absorption (Table 7).

Hbb th3/+ mice = experiment: Mouse model of β-thalassemia intermedia (Hbb th3/+ mice); assay type: in vivo; settings: for Correction of anemia at day 20-48 by 20/60 mg/kg: hemoglobin difference to vehicle; for Decrease in serum iron by 20/60 mg/kg compound: dosed for 3 h
Experimental: The efficacy of Fpn inhibitors is investigated using a mouse model of transfusion-independent β-thalassemia. Mice with heterozygous deletion of β 1 and β 2 globin genes (called Hbb th3/+ mice) develop transfusion-independent anemia, ineffective erythropoiesis, splenomegaly and secondary iron overload in spleen, liver and kidneys. […] Hbb th3/+ mice are dosed twice daily with either compound at 20 or 60 mg/kg or with methylcellulose (10 ml/kg, Sigma, Cat. 274429) as a vehicle. Between both doses mice have access to drinking water supplemented with 1 mM ^58Fe(II)-sulfate (Vifor Pharma, Batch No. ROR 3096) and 10 mM ascorbic acid (Sigma, Cat. 795437) for 6 h. The concentration of ^58Fe(II)-Sulfate supplied in the drinking water is adjusted to substitute for intake of standard rodent diet with iron content of 250 ppm. Water without ^58Fe(II)-Sulfate and ascorbic acid is provided during the remaining 18 h. Dosing of Fpn inhibitors or vehicle followed by exposure to iron-containing water is repeated for 20 to 46 days in individual experiments.
Additional hematologic parameters are measured in terminal blood using automated blood cell analyzer.
The inefficient erythropoiesis of Hbb th3/+ mice causes excessive proliferation of erythroid precursors in spleen, leading to splenomegaly.
Elevated erythropoietin levels in Hbb th3/+ mice induce overexpression of erythroferrone, an erythroid regulator hormone known to suppress hepcidin (Kautz L. et al, Nat. Genet., 2014). […] Erythroferrone is produced by erythrocyte precursors proliferating massively in spleens of Hbb th3/+ mice as a consequence of extramedullar erythropoiesis.
Increased iron demand due to inefficient erythropoiesis and chronically low hepcidin levels in patients with thalassemia causes organ iron loading and associated morbidities, such as hepatocellular carcinoma and heart failure (Rivella S. Haematologica, 2015). Hbb th3/+ mice absorb excessive amounts of iron as a consequence of inadequately low hepcidin levels relative to the high iron content in liver, spleen and kidney and increased ferroportin expression in duodenum (Gardenghi S., Blood, 2007).
Additionally, reactive oxygen species (ROS) are detected in bone marrow cells using a fluorescent indicator, CM-H2DCFDA (Thermo Fisher Scientific, Cat. C6827).
Data are expressed as difference to the vehicle control group for hemoglobin and as % change to the vehicle control group for all other parameter shown

[2] = 20 mg/kg twice daily for 20-46 days, % change to vehicle
[3] = 60 mg/kg twice daily for 20-46 days, % change to vehicle

O=C(NCc1ncccc1F)c1csc(CCNCc2nc3ccccc3[nH]2)n1 [Example Compound No. 40]
Total Liver Iron Reduction (%) ([1]; female ♀): 32%
Total Spleen Iron Increase (%) ([1]; female ♀): 50* %
^58Fe Liver Iron Reduction (%) ([1]; female ♀): 44%
Total Liver Iron Reduction (%) ([1]; male ♂): 31%
^58Fe Liver Iron Reduction (%) ([1]; male ♂): 53* %
Serum Iron Inhibition (%) at 3 h (anemic Wistar rats; Dose 10 mg/kg oral): 32** %
Serum Iron Inhibition (%) at 3 h (anemic Wistar rats; Dose 30 mg/kg oral): 53*** %
Serum Iron Inhibition (%) at 3 h (anemic Wistar rats; Dose 100 mg/kg oral): 97*** %
Decrease in ^58Fe spleen iron content by 20/60 mg/kg compound (Hbb th3/+ mice; [2]): 19%
Decrease in blood reticulocyte counts by 20/60 mg/kg compound (Hbb th3/+ mice; [2]): 19%
Decrease in leukocyte counts by 20/60 mg/kg compound (Hbb th3/+ mice; [2]): 0%
Increase in blood erythrocyte counts by 20/60 mg/kg compound (Hbb th3/+ mice; [2]): 2%
Increase in hematocrit by 20/60 mg/kg compound (Hbb th3/+ mice; [2]): 0%
Prevention of liver ^58Fe loading by 20/60 mg/kg (Hbb th3/+ mice; [2]): 20%
Correction of anemia at day 20-48 by 20/60 mg/kg (Hbb th3/+ mice; 20 mg/kg twice daily): 6 g/L
Decrease in serum iron by 20/60 mg/kg compound (Hbb th3/+ mice; 20 mg/kg, % change to vehicle): 28%
Decrease in ^58Fe spleen iron content by 20/60 mg/kg compound (Hbb th3/+ mice; [3]): 51%
Decrease in blood reticulocyte counts by 20/60 mg/kg compound (Hbb th3/+ mice; [3]): 43%
Increase in blood erythrocyte counts by 20/60 mg/kg compound (Hbb th3/+ mice; [3]): 22%
Increase in hematocrit by 20/60 mg/kg compound (Hbb th3/+ mice; [3]): 1%
Prevention of liver ^58Fe loading by 20/60 mg/kg (Hbb th3/+ mice; [3]): 48%
Correction of anemia at day 20-48 by 20/60 mg/kg (Hbb th3/+ mice; 60 mg/kg twice daily): 13 g/L
Decrease in serum iron by 20/60 mg/kg compound (Hbb th3/+ mice; 60 mg/kg, % change to vehicle): 58%
